Experimental data from patent publication US20250057928A1, “VACCINE COMPOSITION FOR INDUCING ANTI-IL-23 ANTIBODY” (OSAKA UNIVERSITY, priority 2021, published 2025).
Where no end group is shown, it is not given here.

What was measured:
rmIL-23 = experiment: Binding of monkey antiserum to rmIL-23, ELISA; set-up: species or system mouse; settings: monkey antiserum 6 weeks after the initial administration; second statement of b202, FIG. 7(b) covers rhIL-23 and rmIL-23
Procedure: FIG. 7(a) is a graph showing the antibody titer (GMT) of serum collected over time from Macaca fascicularis administered with AJP001 conjugated peptide (SEQ ID NO: 6). FIG. 7(b) is a graph showing the binding ability to rhIL-23 and rmIL-23 of serum collected from the Macaca fascicularis administered with AJP001 conjugated peptide (SEQ ID NO: 6) at 6 weeks after the first administration. FIG. 7(c) is a graph showing the evaluation of neutralization activity of IgG derived from Macaca fascicularis administered with AJP001 conjugated peptide (SEQ ID NO: 6). FIG. 7(d) is a graph showing the results of epitope mapping of anti-IL-23 antibody induced by AJP001 conjugated peptide (SEQ ID NO: 6).
AJP001 conjugated peptide (SEQ ID NO: 6) was dissolved in physiological saline and subcutaneously administered to Macaca fascicularis (female, […], N=4) at 5 mg/body 3 times at two-week intervals. Blood was collected every two weeks from the first day of administration until week 16, and the antibody titer (GMT) and binding to IL-23 of the serum at each time point were measured by the ELISA method (same method as in Example 1; the secondary antibody used was Anti-Monkey IgG (Abcam)). In FIG. 7, “*” means P<0.05.

BALB/c mice = experiment: rhIL-23-induced mouse auricle inflammation model; format: in vivo; settings: 1 mg/body 3 times
Procedure: AJP001 conjugated peptide (SEQ ID NO: 6) was dissolved in physiological saline and administered to BALB/c mice (female, 6-week-old, N=8) at 1 mg/body 3 times at two-week intervals. At the time point of 6 weeks after the initial administration, rhIL-23 was administered intradermally to the ear to induce inflammation. rhIL-23 was administered every day and 4 times in total. As a control group, an rhIL-23 group without administration of AJP001 conjugated peptide was provided. Auricular thickness was measured using a thickness gauge at the time points of 3 days and 4 days after rhIL-23 administration. In addition, the mRNA expression of IL-17A, IL-22, IL-1β, LCN-2, and CXCL-2 in the auricle was measured. The results of efficacy evaluation of the AJP001 conjugated peptide (SEQ ID NO: 6) on auricular thickness and mRNA expression are shown in FIG. 6. In FIG. 6, “*” means that it is significant (P<0.05) compared with “rhIL-23”. “#” means that it is significant (P<0.05) compared with “Normal (normal group)”.

[1] = test system: recombinant mouse IL-23 protein (rmIL-23); experiment: Binding of mouse antiserum to rmIL-23, ELISA; settings: antiserum of BALB/c mice
Procedure: […] […] Specifically, a 96-well plate immobilized with an epitope peptide dissolved at 10 μg/mL in carbonate buffer was blocked with 5% skim milk/PBS, and then serum serially diluted with 5% skim milk/PBS was added, and the mixture was left standing at 4° C. overnight. After washing the wells with PBS-T, HRP-labeled anti-mouse IgG antibody (GE Healthcare) diluted with 5% skim milk/PBS was added and the mixture was shaken at room temperature for 3 hr. After washing the wells with PBS-T, TMB solution (SIGMA) was added, the wells were allowed to stand for 30 min in the dark, the reaction was stopped by adding 0.5M H2SO4, and the absorbance at 450 nm was measured using a plate reader. The serum dilution rate that gave 1/2 (OD=1.75) of the maximum absorbance was defined as the antibody titer, and the geometric mean titer: GMT was calculated from the individual values. Binding to IL-23 protein was measured by the ELISA method in the same manner as the antibody titer, using rmIL-23 (Antibodies-online GmbH) as the solid-phased antigen and goat serum for blocking.
AJP001 conjugated peptide (SEQ ID NO: 2) was dissolved in physiological saline and intradermally administered to BALB/c mice (female, 6-week-old, N=6) at 1 mg/body 3 times at two-week intervals, and blood was collected every 2 weeks until 8 weeks. […]

Row | binding to rmIL-23 (rmIL-23) | binding to rmIL-23 ([1]; 0.5 mg/body twice, 5 weeks after initial administration) | Substance | mRNA expression of IL-17A, IL-22, IL-1β, LCN-2, and CXCL-2 in auricle (BALB/c mice; rhIL-23 to ear) | increase in auricular thickness (BALB/c mice; rhIL-23 to ear daily 4 times from week 6, day 3 and 4) | binding ability to rmIL-23 ([1]; 1 mg/body 3 times, 6 weeks)
1 | not observed | – | SEQ ID NO 6: AJP001-Ahx-B cell epitope peptide conjugate; epitope SPSQPWQR (human 151-158) (not fully specified (N-terminus); listed as Homo sapiens) | suppressive action | suppressive action | –
2 | – | confirmed | SEQ ID NO 2: AJP001-Ahx-B cell epitope peptide conjugate; epitope SSSQQWQR (mouse 152-159) (not fully specified (N-terminus); listed as Mus musculus) | – | – | contained antibodies that bind to rmIL-23
